# Patent publication US4012516A, “Pharmacologically active compositions” (Burroughs Wellcome Co., priority 1975, dated 1977)
# Where two headings read alike, the source gives them in different places.
# Tested on: human chopped lung tissue
# Assay: Inhibition of histamine release from human chopped lung tissue passively sensitized in vitro with reaginic antibody, challenged with homologous antigen
# Type: cell-based
# Details: for inhibition at 1 µM: Compound (II) 10^-6 M alone; for inhibition at 0.001 µM: Salbutamol 10^-9 M alone; for inhibition at 0.0001 µM: Salbutamol 10^-10 M alone
# Text: The release of histamine from lung preparations treated in this way is known to be inhibited by both the stimulants and the compounds of formula (I) when used separately, but it has now been shown that their combined effect is greater than was to be expected from a knowledge of the activity of the individual components, and in particular the inhibition is greater than the sum of the individual responses when the components are used separately at the same concentrations. The compounds of formula (I) are represented by the formula [drawing 1] wherein Z is carbonyl (C=O) or oxygen (--O--), and X is carboxy or a 5-tetrazolyl group, and salts thereof with pharmaceutically acceptable cations. Of especial value are:
# The experimental procedure used was that using chopped human lung tissue substantially as described in Br. Med. J. 3, 272 (1968).
# [1] = Homo sapiens, Experiment A, Compound (II) none, read-out: Percentage Inhibition of Histamine Release
# [2] = Homo sapiens, Experiment B, Compound (II) none, read-out: Percentage Inhibition of Histamine Release
SMILES,"Percentage Inhibition of Histamine Release (Experiment A, combination: Compound (II) 10^-6 M + Salbutamol 10^-9 M) [%]","Percentage Inhibition of Histamine Release (Experiment A, combination: Compound (II) 10^-6 M + Salbutamol 10^-10 M) [%]","Percentage Inhibition of Histamine Release (Experiment B, combination: Compound (II) 10^-6 M + Salbutamol 10^-8 M) [%]","Percentage Inhibition of Histamine Release (Experiment B, combination: Compound (II) 10^-6 M + Salbutamol 10^-9 M) [%]","Percentage Inhibition of Histamine Release (Experiment B, combination: Compound (II) 10^-6 M + Salbutamol 10^-10 M) [%]","Percentage Inhibition of Histamine Release (Experiment B, combination: Compound (II) 10^-7 M + Salbutamol 10^-8 M) [%]","Percentage Inhibition of Histamine Release (Experiment B, combination: Compound (II) 10^-7 M + Salbutamol 10^-9 M) [%]","Percentage Inhibition of Histamine Release (Experiment B, combination: Compound (II) 10^-7 M + Salbutamol 10^-10 M) [%]","inhibition at 1 µM (Homo sapiens, Experiment A, Salbutamol none, read-out: Percentage Inhibition of Histamine Release) [%]","inhibition at 1 µM (Homo sapiens, Experiment B, Salbutamol none, read-out: Percentage Inhibition of Histamine Release) [%]","inhibition at 0.1 µM (Homo sapiens, Experiment B, Compound (II) 10^-7 M alone, Salbutamol none, read-out: Percentage Inhibition of Histamine Release) [%]",anti-allergic effect in combination with bronchodilator stimulants (combined with bronchodilators acting directly or indirectly by stimulation),inhibition at 0.001 µM [1] [%],inhibition at 0.0001 µM [1] [%],"inhibition at 0.01 µM (Homo sapiens, Experiment B, Salbutamol 10^-8 M alone, Compound (II) none, read-out: Percentage Inhibition of Histamine Release) [%]",inhibition at 0.001 µM [2] [%],inhibition at 0.0001 µM [2] [%]
"O=C1c2ccccc2S(=O)(=O)c2cc(-c3nnn[nH]3)ccc21 [Compound (II), 3-(5-TETRAZOLYL)THIOXANTHONE-10,10-DIOXIDE]",49,58,38,96,-11,64,80.5,-5,15,-14.5,-13,potentiated,–,–,–,–,–
"CC(C)(C)NCC(O)c1ccc(O)c(CO)c1 (stereo not drawn) [Salbutamol, α'-t-butylaminomethyl-4-hydroxy-m-xylene-α',α^3-diol, reference compound]",–,–,–,–,–,–,–,–,–,–,–,–,0,17,27,22,0.9
